For test [1], the target named is T1, RPS6KA3 Ribosomal protein S6 kinase alpha-3 (Homo sapiens, UniProt P51812).
T1 construct: Cells were resuspended in cold PBS on ice and sonicated with a probe sonicator to achieve lysis; endogenous in cells
In words: Cysteine liganding, probe competition. In kind it is binding. An outline of the steps:
(§1)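 Steps: sonicate cells in cold PBS; treat 5 mg/ml lysate with compound (25° C, 1 hr); add desthiobiotin iodoacetamide probe from a 10 mM stock (25° C, 1 hr); precipitate, reduce, alkylate, digest with trypsin; capture labelled peptides on streptavidin for analysis.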

The target in test [2] is T2, NEK9 Serine/threonine-protein kinase Nek9 (Homo sapiens, UniProt Q8TD19).
T2 construct: Cells were resuspended in cold PBS on ice and sonicated with a probe sonicator to achieve lysis; endogenous in cells
T2 sequence (Q8TD19 1-979): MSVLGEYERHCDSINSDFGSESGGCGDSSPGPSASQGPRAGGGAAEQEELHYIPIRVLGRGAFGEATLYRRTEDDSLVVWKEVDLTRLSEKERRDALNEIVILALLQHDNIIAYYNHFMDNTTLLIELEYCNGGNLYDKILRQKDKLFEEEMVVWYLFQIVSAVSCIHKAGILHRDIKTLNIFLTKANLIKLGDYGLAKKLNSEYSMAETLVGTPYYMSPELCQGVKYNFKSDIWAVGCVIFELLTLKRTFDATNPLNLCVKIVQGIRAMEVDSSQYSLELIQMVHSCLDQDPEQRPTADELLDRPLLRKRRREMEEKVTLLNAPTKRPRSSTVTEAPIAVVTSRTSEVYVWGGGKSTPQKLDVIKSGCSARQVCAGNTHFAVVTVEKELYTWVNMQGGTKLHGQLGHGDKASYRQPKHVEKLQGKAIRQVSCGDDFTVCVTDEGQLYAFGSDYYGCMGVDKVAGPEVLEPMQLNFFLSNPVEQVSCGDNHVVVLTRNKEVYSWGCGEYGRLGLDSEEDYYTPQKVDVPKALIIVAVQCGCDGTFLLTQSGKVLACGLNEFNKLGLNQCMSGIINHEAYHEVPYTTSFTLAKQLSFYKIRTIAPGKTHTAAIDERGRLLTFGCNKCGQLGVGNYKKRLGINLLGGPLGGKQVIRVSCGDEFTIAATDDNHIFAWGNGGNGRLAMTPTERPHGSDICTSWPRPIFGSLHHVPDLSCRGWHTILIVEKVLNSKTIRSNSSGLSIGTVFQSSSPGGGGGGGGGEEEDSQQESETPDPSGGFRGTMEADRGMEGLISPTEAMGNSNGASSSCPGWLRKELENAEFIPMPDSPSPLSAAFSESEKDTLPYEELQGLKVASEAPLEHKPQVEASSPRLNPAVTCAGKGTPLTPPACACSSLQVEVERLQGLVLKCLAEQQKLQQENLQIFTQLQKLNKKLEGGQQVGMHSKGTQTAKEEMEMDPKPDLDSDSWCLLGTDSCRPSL
In words: Cysteine liganding, probe competition. In kind it is binding. In short, it runs like this:
as §1

Experimental findings from patent publication US20200239530A1, “COMPOUNDS AND METHODS OF MODULATING PROTEIN DEGRADATION” (Vividion Therapeutics, Inc., priority 2017, published 2020) are described below.

T1 sequence (P51812 whole entry): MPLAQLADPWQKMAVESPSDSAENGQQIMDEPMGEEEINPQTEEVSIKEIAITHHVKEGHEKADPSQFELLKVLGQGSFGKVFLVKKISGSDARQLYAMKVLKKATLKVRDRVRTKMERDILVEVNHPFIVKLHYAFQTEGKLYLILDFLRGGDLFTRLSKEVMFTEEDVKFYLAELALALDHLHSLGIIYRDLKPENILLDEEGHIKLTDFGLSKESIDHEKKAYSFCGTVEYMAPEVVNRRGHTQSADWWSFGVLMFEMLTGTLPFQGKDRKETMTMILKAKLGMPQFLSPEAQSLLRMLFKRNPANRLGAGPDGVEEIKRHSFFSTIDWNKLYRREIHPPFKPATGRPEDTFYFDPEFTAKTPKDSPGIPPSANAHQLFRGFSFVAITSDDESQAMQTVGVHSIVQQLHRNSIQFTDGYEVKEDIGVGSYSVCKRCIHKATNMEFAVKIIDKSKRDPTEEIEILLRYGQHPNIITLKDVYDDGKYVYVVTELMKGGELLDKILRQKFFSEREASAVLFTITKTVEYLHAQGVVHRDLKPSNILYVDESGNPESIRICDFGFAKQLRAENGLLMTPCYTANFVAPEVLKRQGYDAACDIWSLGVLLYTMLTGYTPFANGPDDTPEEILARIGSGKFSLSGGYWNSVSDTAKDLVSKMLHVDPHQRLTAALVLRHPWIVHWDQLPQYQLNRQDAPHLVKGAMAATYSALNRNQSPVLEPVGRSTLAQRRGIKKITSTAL

Turning to `COc1ccc2c(c1)CCCN2C(=O)CCl` [KB02], the Liganded result in test [1] (RPS6KA3 Res# 229, uniprot P51812) is “YES”; in test [2] (NEK9 Res# 260, uniprot Q8TD19), “YES”.

For the compound `O=C(CCl)Nc1cc(C(F)(F)F)cc(C(F)(F)F)c1` [KBO3], in test [1] (uniprot P51812), the “100 Max” value came out at 1.03, the 100 ave is −4.767 and the 500 ave was 30.61. The “500 Max” value in test [1] (uniprot P51812, in % (unit assumed)) was determined as 30.61. Also, in test [2] (uniprot Q8TD19), the “100 Max” value amounted to 9.47, the 100 ave is 9.47, the “500 Max” value is given as 56.18 and the 500 ave amounted to 56.18.
